# Source: US7410974B2, “Halogenated Quinazolinyl nitrofurans as antibacterial agents” (Ulysses Pharmaceutical Products, Inc., priority 2003, dated 2008)
# Where two headings read alike, the source gives them in different places.
# Key:
# S. aureus ATCC 29213 = test: MIC broth microdilution (NCCLS); type: cell-based, Staphylococcus aureus; conditions: Staphylococcus aureus, ATCC29213; S. aureus ATCC 29213; read-out: MIC
# Description: (§1) Minimal Inhibitory Concentration (MIC) Determination. Bacteria (primary strain panel, TABLE 1). Susceptibility tests were performed following the recommendations from the National Committee for Clinical Standards (NCCLS). The MICs were determined by a broth microdilution technique using a final volume of 100 μl of cation-adjusted Mueller Hinton Broth (MHBCA) and a bacterial inoculum of 10^5-10^6 Colony Forming Units (CFU)/ml. The inocula were verified and precisely determined by applying 10-μl drops of 10-fold dilutions onto Triptic Soy Agar plates. The CFU were counted after an incubation of 24 h at 35° C. Any experiment showing an inoculum that was more or less than 10^5-10^6 CFU/ml was rejected. Control antibiotics and test compounds were prepared at a concentration equivalent to 2-fold the highest desired final concentration. Compounds were then diluted directly in the 96-well microtiter plates by serial 2-fold dilutions using a multichannel pipette. Microtiter plates were incubated during 24 h at 35° C. and growth was recorded by using a microtiterplate reader at 650 nm as well as by visual observation. The MIC was defined as the lowest concentration of compound yielding no visible growth. […] Fastidious bacteria. The medium used for Listeria monocytogenes, Neisseria meningitidis, and Campylobacter jejuni was MHBCA containing 2% laked horse blood. The medium used for Haemophilus influenzae and Branhamella (Moraxella) catarrhalis was HTM as recommended by the NCCLS. Cultures of these fastidious bacteria were incubated at 35° C. in a 5% CO2 atmosphere. […] The medium used for Bacteroides fragilis was Wilkins Chalgren broth and growth was allowed under an anaerobic atmosphere at 35° C. for 48 hours.
# S. aureus MRSA COL = test: MIC broth microdilution (NCCLS); type: cell-based, Staphylococcus aureus; conditions: S. aureus MRSA COL
# Description: as §1, with “hours. […]” for “hours.”
# [1] = tested on: S. saprophyticus ATCC 15305; test: MIC broth microdilution (NCCLS); type: cell-based, Staphylococcus saprophyticus; conditions: Staphylococcus saprophyticus, ATCC15305; S. saprophyticus ATCC 15305; read-out: MIC
# Description: as §1
# E. faecalis ATCC 29212 = test: MIC broth microdilution (NCCLS); type: cell-based, Enterococcus faecalis; conditions: Enterococcus faecalis, ATCC29212; E. faecalis ATCC 29212; read-out: MIC
# Description: as §1
# E. coli ATCC 25922 [2] = test: MIC broth microdilution (NCCLS); type: cell-based, Escherichia coli
# Description: as §1
# A. baumannii ATCC 19606 = test: MIC broth microdilution (NCCLS); type: cell-based, Acinetobacter baumannii; conditions: Acinetobacter baumannii, ATCC19606, read-out: MIC
# Description: as §1
# [3] = tested on: Y. enterocolytica ATCC 23715; test: MIC broth microdilution (NCCLS); type: cell-based, Yersinia enterocolytica; conditions: Yersinia, ATCC23715, read-out: MIC
# Description: as §1
# B. fragilis ATCC 25285 = test: MIC broth microdilution (NCCLS), anaerobic; type: cell-based; conditions: Bacteroides fragilis, ATCC25285; B. fragilis ATCC 25285; Wilkins Chalgren broth, anaerobic, 48 hours; read-out: MIC
# Description: as §1
# [4] = tested on: E. coli ATCC 35150 (O157:H7); test: MIC broth microdilution, E. coli strains; type: cell-based; conditions: Escherichia coli, ATCC35150
# Description: as §1
# (§2) Finally, compounds were also tested against populations of various clinical strains (antibiotic resistant strain panel, TABLE 1).
# E. coli Ec022c (EIEC) = test: MIC broth microdilution, E. coli strains; type: cell-based; conditions: Escherichia coli, pathotype EIEC
# Description: as §1, §2
# E. coli Ec027c (EIEC) = test: MIC broth microdilution, E. coli strains; type: cell-based; conditions: Escherichia coli, pathotype EIEC
# Description: as §1, §2
# E. coli Ec117c (EIEC) = test: MIC broth microdilution, E. coli strains; type: cell-based; conditions: Escherichia coli, pathotype EIEC
# Description: as §1, §2
# E. coli Ec118c (EIEC) = test: MIC broth microdilution, E. coli strains; type: cell-based; conditions: Escherichia coli, pathotype EIEC
# Description: as §1, §2
# E. coli Ec119c (EIEC) = test: MIC broth microdilution, E. coli strains; type: cell-based; conditions: Escherichia coli, pathotype EIEC
# Description: as §1, §2
# [5] = tested on: E. coli d25-ALR-pen14 (O157:H7); test: MIC broth microdilution, E. coli strains; type: cell-based; conditions: Escherichia coli
# Description: as §1, §2
# [6] = tested on: E. coli d4-OLR-pen10 (O157:H7); test: MIC broth microdilution, E. coli strains; type: cell-based; conditions: Escherichia coli
# Description: as §1, §2
# [7] = tested on: S. epidermidis ATCC 12228; test: MIC broth microdilution (NCCLS); type: cell-based, Staphylococcus epidermidis; conditions: Staphylococcus epidermidis, ATCC12228; S. epidermidis ATCC 12228; read-out: MIC
# Description: as §1
# E. faecium ATCC 35667 = test: MIC broth microdilution (NCCLS); type: cell-based, Enterococcus faecium; conditions: Enterococcus faecium, ATCC35667, E. faecium ATCC 35667; read-out: MIC
# Description: as §1
# H. influenzae ATCC 49247 = test: MIC broth microdilution (NCCLS), fastidious bacteria; type: cell-based; conditions: Haemophilus influenzae, ATCC49247, HTM, 5% CO2
# Description: as §1
# H. influenzae ATCC 49766 = test: as above; type: cell-based; conditions: Haemophilus influenzae, ATCC49766, HTM, 5% CO2
# Description: as §1
# [8] = tested on: L. monocytogenes ATCC 13932; test: as above; type: cell-based; conditions: Listeria monocytogenes, ATCC13932, MHBCA with 2% laked horse blood, 5% CO2
# Description: as §1
# B. catarrhalis ATCC 8176 = test: as above; type: cell-based, Branhamella (Moraxella) catarrhalis; conditions: Moraxella catarrhalis, ATCC8176, HTM, 5% CO2
# Description: as §1
# M. smegmatis ATCC 19420 = test: as above; type: cell-based, Mycobacterium smegmatis; conditions: Mycolicibacterium smegmatis, ATCC19420, read after 48 hours
# Description: as §1
# E. faecium VanA = test: MIC broth microdilution, antibiotic resistant strain panel; type: cell-based; conditions: Enterococcus faecium; multi-resistant E. faecium VanA; read-out: MIC
# Description: as §1, §2
# MRSA strain Sa211c = test: as above; type: cell-based, Staphylococcus aureus; conditions: Staphylococcus aureus; multi-resistant MRSA strain Sa211c; read-out: MIC
# Description: as §1, §2
# MRSA strain Sa212c = test: as above; type: cell-based, Staphylococcus aureus; conditions: Staphylococcus aureus; multi-resistant MRSA strain Sa212c; read-out: MIC
# Description: as §1, §2
# MRSA strain Sa220c = test: as above; type: cell-based, Staphylococcus aureus; conditions: Staphylococcus aureus; multi-resistant MRSA strain Sa220c; read-out: MIC
# Description: as §1, §2
# MRSA strain Sa224c = test: as above; type: cell-based, Staphylococcus aureus; conditions: Staphylococcus aureus; multi-resistant MRSA strain Sa224c; read-out: MIC
# Description: as §1, §2
# MRSA strain Sa228c = test: as above; type: cell-based, Staphylococcus aureus; conditions: Staphylococcus aureus; multi-resistant MRSA strain Sa228c; read-out: MIC
# Description: as §1, §2
# MRSA strain Sa234c = test: as above; type: cell-based, Staphylococcus aureus; conditions: Staphylococcus aureus; multi-resistant MRSA strain Sa234c; read-out: MIC
# Description: as §1, §2
# MRSA strain Sa248c = test: as above; type: cell-based, Staphylococcus aureus; conditions: Staphylococcus aureus; multi-resistant MRSA strain Sa248c; read-out: MIC
# Description: as §1, §2
# MRSA strain Sa249c = test: as above; type: cell-based, Staphylococcus aureus; conditions: Staphylococcus aureus; multi-resistant MRSA strain Sa249c; read-out: MIC
# Description: as §1, §2
# MRSA strain Sa253c = test: as above; type: cell-based, Staphylococcus aureus; conditions: Staphylococcus aureus
# Description: as §1, §2
# Solubility in water = type: physicochemical
# Description: Solubility of Compounds V and XV. The extent of solubility of compounds was evaluated in water.
# E. coli ATCC 25922 [9] = test: Minimal Bactericidal Concentration (MBC); type: cell-based; conditions: Escherichia coli, ATCC25922, 99.9% killing
# Description: (§3) Minimal Bactericidal Concentration (MBC). After the microtiter plates were read for the determination of the MIC, a 10-μl sample of each clear well (at least 5 wells without visible growth) was applied onto TSA plates for viable counts determination.
# (§4) Petri dishes were incubated at 35° C. for exactly 24 h and bacterial colonies were counted.
# [10] = tested on: S. saprophyticus ATCC 15305; test: Minimal Bactericidal Concentration (MBC); type: cell-based; conditions: Staphylococcus saprophyticus, ATCC15305; S. saprophyticus ATCC 15305; 99.9% killing; read-out: MBC
# Description: as §3, §4
# [11] = Staphylococcus aureus, MRSA, read-out: MIC
# [12] = Escherichia coli, ATCC25922, E. coli ATCC 25922 (Reference), read-out: MIC
smiles,measurement,setting,value
CN(C)[C@@H]1C(O)=C(C(N)=O)C(=O)[C@@]2(O)C(O)=C3C(=O)c4c(O)cccc4[C@@](C)(O)[C@H]3C[C@@H]12 [Tetracycline],MIC,S. aureus ATCC 29213,0.5 to 1 µg/mL
same,MIC,S. aureus MRSA COL; [11],2 µg/mL
same,MIC,[1],1 µg/mL
same,MIC,E. faecalis ATCC 29212,16 to 32 µg/mL
same,MIC,E. coli ATCC 25922 [2]; E. coli ATCC 25922 (Reference),2 µg/mL
same,MIC,E. coli ATCC 25922 [2]; [12],1 to 2 µg/mL
same,MIC,A. baumannii ATCC 19606,16 µg/mL
same,MIC,[3],> 32 µg/mL
same,MIC,B. fragilis ATCC 25285,0.25 µg/mL
same,MIC,[4],2 µg/mL
same,MIC,E. coli Ec022c (EIEC),2 µg/mL
same,MIC,E. coli Ec027c (EIEC),> 32 µg/mL
same,MIC,E. coli Ec117c (EIEC),> 32 µg/mL
same,MIC,E. coli Ec118c (EIEC),4 µg/mL
same,MIC,E. coli Ec119c (EIEC),> 32 µg/mL
same,MIC,[5],> 32 µg/mL
same,MIC,[6],> 32 µg/mL
"CN1CCN(c2cc3nc(C=Cc4ccc([N+](=O)[O-])o4)nc(Nc4ccc(O)cc4)c3cc2F)CC1 [Compound XV, 7-(4-methylpiperazino)-6-fluoro-2-[2-(5-nitro-2-furyl)vinyl]-4-(p-hydroxyanilino)-quinazoline]",MIC,S. aureus ATCC 29213,2 µg/mL
same,MIC,S. aureus MRSA COL; [11],0.5 µg/mL
same,MIC,[7],1 to 2 µg/mL
same,MIC,[1],2 µg/mL
same,MIC,E. faecalis ATCC 29212,2 to 8 µg/mL
same,MIC,E. faecium ATCC 35667,8 µg/mL
same,MIC,H. influenzae ATCC 49247,2 µg/mL
same,MIC,H. influenzae ATCC 49766,2 µg/mL
same,MIC,[8],0.5 µg/mL
same,MIC,B. catarrhalis ATCC 8176,0.5 µg/mL
same,MIC,M. smegmatis ATCC 19420,0.25 µg/mL
same,MIC,B. fragilis ATCC 25285,0.5 µg/mL
same,MIC,E. faecium VanA,0.5 µg/mL
same,MIC,MRSA strain Sa211c,2 µg/mL
same,MIC,MRSA strain Sa212c,4 µg/mL
same,MIC,MRSA strain Sa220c,0.25 µg/mL
same,MIC,MRSA strain Sa224c,1 µg/mL
same,MIC,MRSA strain Sa228c,2 µg/mL
same,MIC,MRSA strain Sa234c,2 µg/mL
same,MIC,MRSA strain Sa248c,0.5 µg/mL
same,MIC,MRSA strain Sa249c,0.5 µg/mL
same,MIC,"MRSA strain Sa253c; multi-resistant MRSA strain Sa253c, read-out: MIC",2 µg/mL
same,solubility relative to Compound V,Solubility in water,4 times
same,solubility,Solubility in water; read-out: solubility in water (no visible particles),1000 µg/mL
CCn1cc(C(=O)O)c(=O)c2cc(F)c(N3CCNCC3)cc21 [Norfloxacin],MIC,S. aureus ATCC 29213,1 µg/mL
same,MIC,S. aureus MRSA COL,1 µg/mL
same,MIC,S. aureus MRSA COL; [11],0.5 to 1 µg/mL
same,MIC,[7],0.5 µg/mL
same,MIC,[1],2 µg/mL
same,MIC,E. faecalis ATCC 29212,4 µg/mL
same,MIC,E. faecium ATCC 35667,16 µg/mL
same,MIC,E. coli ATCC 25922 [2]; [12],0.03 µg/mL
same,MIC,[8],0.008 µg/mL
same,MIC,M. smegmatis ATCC 19420,2 µg/mL
same,MIC,MRSA strain Sa211c,> 32 µg/mL
same,MIC,MRSA strain Sa212c,> 32 µg/mL
same,MIC,MRSA strain Sa220c,> 32 µg/mL
same,MIC,MRSA strain Sa224c,> 32 µg/mL
same,MIC,MRSA strain Sa228c,> 32 µg/mL
same,MIC,MRSA strain Sa234c,> 32 µg/mL
same,MIC,MRSA strain Sa248c,32 µg/mL
same,MIC,MRSA strain Sa249c,32 µg/mL
same,MIC,MRSA strain Sa253c; MRSA,> 128 µg/mL
same,MBC,E. coli ATCC 25922 [9],0.06 µg/mL
same,MBC,[10],4 µg/mL
